Consider 18 substances from patent US7098304B1, “Assay for the diagnosis of schizophrenia based on a new peptide” (Yeda Research and Development Co. Ltd., priority 1998, dated 2006).

Experiment [1] concerns SDAs as compared to NSDAs. Briefly: Binding activity of peptides line-blotted onto PVDF to SDAs as compared to NSDAs. The settings on record: for Activity: binding to SDAs versus NSDAs. On the set-up: species or system human; key to Activity: showed a substantially higher binding activity to SDAs as compared to their binding to NSDAs (indicated as YES in the table); No: showed no significant differences in their binding to samples from schizophrenic and non-schizophrenic individuals (designed as no in the table). On the procedure:
(§1) 1. Platelets and Anti-Platelet Autoantibodies Venous blood (20 ml) was drawn with heparin as anticoagulant from patients and control subjects. Platelet rich plasma (PRP) was obtained by centrifugation (100 g for 20 mins) at room temperature. Plasma free platelets were obtained by washing them three times with phosphate buffered saline (PBS) supplemented with 10 ml mM EDTA as anticoagulant (4000 g; 15 mins; 4° C.). For the isolation of anti-platelet antibodies, the platelets were incubated with 0.1 M glycine/10 mM EDTA, pH 2.8, for 10 min. at room temperature and then centrifuged (4000 g; 15 min; 4° C.). The supernatant containing the anti-platelet antibodies, was neutralized with saturated Na2PO4 solution and stored at −20 until use. 2. Preparative Isoelectric Focusing
(§2) The fractions were analyzed for immuno-reactivity by polyacrylamide (10%) gel electrophoresis, blotting the proteins onto PVDF membranes and probing the membrane with 1 ml auto-antibodies in 50 ml incubation buffer. Anti-human Fc conjugated to horseradish peroxidase (goat) from SIGMA (1:500 dilution) and Fast-DAB™ (SIGMA) or 4-Chloro-naphthol (SIGMA) were used as color reagent in order to detect bound human anti-platelet antibodies.
(§3) Various peptides were synthesized on Abimed 522 at a 10 micromol scale by Eurosequence b.v. Peptides were routinely dissolved in 1 ml water/DMF/DMSO (1:1:1;v/v/v). Peptides were line-blotted onto PVDF membranes and tested for immuno-reactivity as described above.
Based on the sequence of the epitope identified in the digested proteins, a number of peptides were synthesized by the method described in 1.8 above. The synthesized peptides were then evaluated for their binding activity to SDAs as compared to NSDAs as described above.

In experiment [2] the test system is SDAs (schizophrenic derived antibodies). Briefly: Reactivity of proteins to SDAs (platelet autoantibodies from schizophrenic patients), blot with anti-human Fc-HRP. Type of experiment: binding. The settings on record: number of SDA samples that reacted positively with the enzyme, of 8 patients. Here is the method: as §1, §2
(§4) Every fifth fraction (0.1 ml) was dot blotted onto PVDF membranes using the DotBlot device (96 wells) from BioRad. Immuno-reactive fractions were then detected as described above (1.3)
(§5) The binding activity of the above two enzymes was then tested by reacting them with SDAs (prepared from samples obtained from schizophrenic patients) and to NSDA (prepared from control non-schizophrenic individuals).

For experiment [3], the system named is NSDAs (non-schizophrenic derived antibodies). Briefly: Reactivity of proteins to NSDAs (platelet autoantibodies from control non-schizophrenic individuals), blot with anti-human Fc-HRP. Type of experiment: binding. The settings on record: number of NSDA samples that reacted positively with the enzyme, of 8 controls. On the procedure:
as §1, §2, §4, §5

Experiment [4] has as its system PAAs obtained from schizophrenic patients (SDA). Briefly: Binding of peptide to isolated PAAs from schizophrenic patients. On the set-up: species or system human. Here is the method:
as §1, §2
(§6) Various peptides were synthesized on Abimed 522 at a 10 micromol scale by Eurosequence b.v. Peptides were routinely dissolved in 1 ml water/DMF/DMSO (1:1:1;v/v/v). […]

Experiment [5] deals with PAAs obtained from non-schizophrenic individuals. Briefly: Binding of peptide to isolated PAAs from non-schizophrenic individuals. More on the design: species or system human. The settings on record: isolated PAAs from eight different non-schizophrenic individuals, FIG. 1B. Here is the method:
as §1, §2, §6

The test system of experiment [6] is NSDA in plasma samples from non-schizophrenic individuals. Briefly: Binding of peptide to plasma samples from non-schizophrenic individuals. More on the design: species or system human. The settings on record: plasma samples of fifteen non-schizophrenic individuals, FIG. 2B. Here is the method: as §2, §3
(§7) The capability of Peptide 14 (SEQ ID NO: 3) to bind SDA in plasma samples obtained from schizophrenic patients was then tested. […] Peptide 14 (SEQ ID NO: 10) was used as a negative control.

Experiment [7] relates to SDA in plasma samples obtained from schizophrenic patients. Briefly: Binding of peptide to plasma samples from schizophrenic patients. More on the design: species or system human. The settings on record: plasma samples of five schizophrenic patients, FIG. 2A. On the procedure:
as §2, §3, §7

“10 (SGETEDTFIADLVVGLCTGQ; peptide capable of binding antibodies that are found in elevated levels in body fluids of schizophrenic patients.) [compound 10]”: the Activity entry in experiment [1] is recorded as “No”. “7 (LVVGLCTGQIKTGAPCR; peptide capable of binding antibodies that are found in elevated levels in body fluids of schizophrenic patients.) [compound 7]”: the Activity entry in experiment [1] is on record as “YES”. In the case of “6 (DLVVGLCTGQIKTGAPCR; peptide capable of binding antibodies that are found in elevated levels in body fluids of schizophrenic patients.) [compound 6]”, the Activity entry in experiment [1] is “YES”. As for “G-3-P-Dehydrogenase from human: glyceraldehyde-3-phosphate dehydrogenase (G3PD) enzyme from human”, the “Patients (n = 8) Positive” value in experiment [2] is listed as 7/8. Moreover, in experiment [3], the “Controls (n = 8) Positive” value was 1/8. On to “SGETEDTFIADLVVGLCTGQIKTGAPCR (being the immunologically active epitope) [SEQ ID NO: 2]”, for which, in experiment [1] (binding SDAs to a higher extent than NSDAs, amino acids 372-399), the “immunological activity of peptide from enzymatic digest of Enolase” value is “immunologically active”. For the substance “11 (VVGLCTGQIKTGAPCR; peptide capable of binding antibodies that are found in elevated levels in body fluids of schizophrenic patients.) [compound 11]”, the Activity result in experiment [1] is on record as “No”. As for “15 (LVVGLCTGQIKTGPAC; peptide capable of binding antibodies that are found in elevated levels in body fluids of schizophrenic patients.) [compound 15]”, the Activity result in experiment [1] was “No”. Still for that read-out and setting: as for “4 (IADLVVGLCTGQIKTGAPCR; peptide capable of binding antibodies that are found in elevated levels in body fluids of schizophrenic patients.) [compound 4]”, the entry is “YES”; as for “12 (CTGQIKTGAPCR; peptide capable of binding antibodies that are found in elevated levels in body fluids of schizophrenic patients.) [compound 12]”, “No”; as for “9 (LVVGLCTPQIKTGPACR; peptide capable of binding antibodies that are found in elevated levels in body fluids of schizophrenic patients.) [compound 9]”, “YES”.

As to “8 (LVVGLCTGQIKTGPACR; peptide capable of binding antibodies that are found in elevated levels in body fluids of schizophrenic patients.) [compound 8]”, the Activity entry in experiment [1] is reported as “YES”. Still for that read-out and setting: as for “5 (ADLVVGLCTGQIKTGAPCR; peptide capable of binding antibodies that are found in elevated levels in body fluids of schizophrenic patients.) [compound 5]”, the entry is “YES”. Turning to “2 (SGETEDTFIADLVVGLCTGQIKTGAPCR; being the immunologically active epitope) [compound 2]”, the Activity result in experiment [1] was “YES”. Turning to “13 (LVVGLCTGQIKTGAPC; peptide capable of binding antibodies that are found in elevated levels in body fluids of schizophrenic patients.) [compound 13]”, the Activity entry in experiment [1] is on record as “No”.

With “G-3-P-Dehydrogenase from chicken: glyceraldehyde-3-phosphate dehydrogenase (G3PD) enzyme from chicken”, the “Patients (n = 8) Positive” value in experiment [2] is 7/8. The “Controls (n = 8) Positive” value in experiment [3] is reported as 2/8. In the case of “3 (LVVGLCTCQIKTGPAC; peptide capable of binding antibodies that are found in elevated levels in body fluids of schizophrenic patients.) [compound 3]”, the Activity result in experiment [1] is “YES”. Take “G-3-P-Dehydrogenase from pig: glyceraldehyde-3-phosphate dehydrogenase (G3PD) enzyme from pig”: the “Patients (n = 8) Positive” value in experiment [2] is recorded as 8/8. Also, the “Controls (n = 8) Positive” value in experiment [3] was 1/8. Regarding “LVVGLCTCQIKTGPAC (peptide capable of binding antibodies that are found in elevated levels in body fluids of schizophrenic patients.) [SEQ ID NO: 3]”, in experiment [4] (isolated PAAs from eight different schizophrenic patients, FIG. 1A), the “PAAs from schizophrenic patients positively bound” value was “seven out of eight”. Besides, the “binding activity to SDA, dimer form versus non-dimer form” value in experiment [4] (ring via two cysteins and dimer via free cystein after overnight in water/DMF/DMSO) is “the dimer form of the peptide was much more active in binding SDAs than the non-dimer form”. Further, the “ranking of binding to antibodies found in high levels in schizophrenic patients” value in experiment [1] (among the synthesized peptides) is on record as “most capable of binding”. Besides, in experiment [1], the Activity result is listed as “No”. Also, the “binding to PAAs from non-schizophrenic individuals” value in experiment [5] is listed as “did not bind”. Besides, the “plasma samples of non-schizophrenic individuals whose NSDA was not bound” value in experiment [6] was “fourteen out of fifteen”. The “SDA in plasma of schizophrenic patients positively bound” value in experiment [7] was “four out of five”.
